{"source": "patent US20210323940A1", "about": "(OCEANS LTD., priority 2018, published 2021)", "key": {"[1]": {"assay": "CIMA assay (tetrazolium reduction, cell viability, 72 h)", "assay_type": "cell-based, human", "details": "human", "method": "(§1) Prepared extracts were assessed following chronic exposure conditions in which cells were seeded at 2×10^3 cells/well (96 wells-plate) and incubated with test compounds for 72 h. Each compound was evaluated over a range of concentrations (0, 10, 25, 50 or 100 μg/ml). Cell proliferation was initially assessed using a standard colorimetric indicator of metabolic activity (CIMA) assay. In this assay, tetrazole reduction was evaluated as a measure of metabolic function that evaluates mitochondrial activity to determine the extent of cell proliferation within a culture. This assay is based on the reduction of yellow tetrazolium salt to purple formazan by mitochondrial reductases enzyme in viable cells, resulting in a color change that confers a change in absorbance. Seven human cell lines were selected for primary evaluation: U373 (glioblastoma-astrocytoma), A549 (lung carcinoma), THP-1 (acute monocytic leukemia), MCF7 (mammary gland adenocarcinoma), SKOV3 (ovarian adenocarcinoma), PC3 (prostate adenocarcinoma) and CCD1079SK (fibroblast, noncancerous but proliferating) (see FIG. 2 and Table 2). Results are expressed in Table 2 as % viability (means±standard deviation of three replicates), with LD50/IC50 values in Tables 3 and 6. […] The maximum DMSO concentration was 1% at 100 μg/ml with 5% SDS used as a known toxic inducer.\n(§2) Experimental: Stock solutions of the test compounds were prepared in dimethylsulfoxide (DMSO) at 10 mg/ml and stored at −20° C. until used. This preparation ensures that the DMSO content delivered to cells in culture never exceeds 1%. Appropriate cells number, based on previous assays, were seeded in 96 well plate and incubated with test compounds (up to 8 log concentrations, 0 to 50 or 100 μg/ml) for 72 h. Cell proliferation was initially assessed using a standard colorimetric indicator of metabolic activity (CIMA) assay. In this assay, reduction of yellow tetrazolium salt (MTT) to purple formazan by mitochondrial reductases enzymes in viable cells were measured as change in absorbance (λ=500-600).\n(§3) Seven human cell lines were evaluated: U373 (glioblastoma-astrocytoma), A549 (lung carcinoma), PC3 (prostate adenocarcinoma), THP1 (acute monocytic leukemia), MDA-MB-231 (mammary gland adenocarcinoma), SKOV3 (ovarian adenocarcinoma) and CCD1079Sk (normal skin fibroblast) cells."}, "A549 (lung carcinoma)": {"system": "A549 (lung carcinoma)", "assay": "CIMA assay (tetrazolium reduction, cell viability, 72 h)", "assay_type": "cell-based, human", "details": "Homo sapiens", "method": "as §1, §2, §3"}, "[2]": {"system": "CCD1079SK (fibroblast, noncancerous but proliferating)", "assay": "CIMA assay (tetrazolium reduction, cell viability, 72 h)", "assay_type": "cell-based, human", "details": "Homo sapiens, Fibroblast; 1079SK; 72 h", "method": "as §1, §2, §3"}, "[3]": {"system": "PC3 (prostate adenocarcinoma)", "assay": "CIMA assay (tetrazolium reduction, cell viability, 72 h)", "assay_type": "cell-based, human", "details": "Homo sapiens", "method": "as §1, §2, §3"}, "[4]": {"system": "SKOV3 (ovarian adenocarcinoma)", "assay": "CIMA assay (tetrazolium reduction, cell viability, 72 h)", "assay_type": "cell-based, human", "details": "Homo sapiens", "method": "as §1, §2, §3"}, "[5]": {"system": "THP-1 (acute monocytic leukemia)", "assay": "CIMA assay (tetrazolium reduction, cell viability, 72 h)", "assay_type": "cell-based, human", "details": "Homo sapiens", "method": "as §1, §2, §3"}, "[6]": {"system": "U373 (glioblastoma-astrocytoma)", "assay": "CIMA assay (tetrazolium reduction, cell viability, 72 h)", "assay_type": "cell-based, human", "details": "Homo sapiens, U373 MG", "method": "as §1, §2, §3"}, "tumour cell lines": {"system": "tumour cell lines", "assay": "CIMA assay, overall statements on the panel of human cell lines", "assay_type": "cell-based", "details": "synthetic compound, 72 h, listed as Synthesized compound II", "method": "Prepared extracts were assessed following chronic exposure conditions in which cells were seeded at 2×10^3 cells/well (96 wells-plate) and incubated with test compounds for 72 h. Each compound was evaluated over a range of concentrations (0, 10, 25, 50 or 100 μg/ml). Cell proliferation was initially assessed using a standard colorimetric indicator of metabolic activity (CIMA) assay. In this assay, tetrazole reduction was evaluated as a measure of metabolic function that evaluates mitochondrial activity to determine the extent of cell proliferation within a culture. This assay is based on the reduction of yellow tetrazolium salt to purple formazan by mitochondrial reductases enzyme in viable cells, resulting in a color change that confers a change in absorbance. […]\nCrude extract #1 was fractionated into five fractions by C-18 SPE column separation using 15 ml each of 5% methanol (fraction 1), 25% methanol (fraction 2), 50% methanol (fraction 3), 100% methanol (fraction 4) and methanol:dichloromethane (1:1) (fraction 5). Extracts were fractionated and the resulting fractions were evaluated using CIMA assay. […]\nExperimental: Stock solutions of the test compounds were prepared in dimethylsulfoxide (DMSO) at 10 mg/ml and stored at −20° C. until used. […] Cell proliferation was initially assessed using a standard colorimetric indicator of metabolic activity (CIMA) assay. […]"}, "[7]": {"details": "A549, read-out: average cell viability"}, "[8]": {"details": "read-out: average cell viability"}, "[9]": {"details": "SK-OV-3, read-out: average cell viability"}, "[10]": {"details": "THP-1, read-out: average cell viability"}}}
{"smiles": "CCCCC[C@H](O)[C@H](O)/C=C/[C@@H]1CCCCCCCC(=O)O1", "note": "[compound (II), 12R, 13S-Dihydroxy-10-Octadecen-9S-olide]", "values": [{"measurement": "viability at 72 h, 1 ug/mL", "setting": "[1]", "value": 91, "unit": "%"}, {"measurement": "viability at 72 h, 10 ug/mL", "setting": "[1]", "value": 84, "unit": "%"}, {"measurement": "viability at 72 h, 50 ug/mL", "setting": "[1]", "value": 90, "unit": "%"}, {"measurement": "viability at 72 h, 100 ug/mL", "setting": "[1]", "value": 17, "unit": "%"}, {"measurement": "viability at 1 µg/mL", "setting": "A549 (lung carcinoma); [7]", "value": 95, "unit": "%"}, {"measurement": "viability at 10 µg/mL", "setting": "A549 (lung carcinoma); [7]", "value": 93, "unit": "%"}, {"measurement": "viability at 50 µg/mL", "setting": "A549 (lung carcinoma); [7]", "value": 92, "unit": "%"}, {"measurement": "viability at 100 µg/mL", "setting": "A549 (lung carcinoma); [7]", "value": 61, "unit": "%"}, {"measurement": "IC50", "setting": "A549 (lung carcinoma); A549, 72 h", "value": 22, "unit": "µg/mL"}, {"measurement": "IC50", "setting": "[2]", "value": 34.9, "unit": "µg/mL"}, {"measurement": "viability at 1 µg/mL", "setting": "[3]; [8]", "value": 100, "unit": "%"}, {"measurement": "viability at 10 µg/mL", "setting": "[3]; [8]", "value": 93, "unit": "%"}, {"measurement": "viability at 50 µg/mL", "setting": "[3]; [8]", "value": 97, "unit": "%"}, {"measurement": "viability at 100 µg/mL", "setting": "[3]; [8]", "value": 19, "unit": "%"}, {"measurement": "IC50", "setting": "[3]; PC3, 72 h", "value": 37.7, "unit": "µg/mL"}, {"measurement": "viability at 1 µg/mL", "setting": "[4]; [9]", "value": 97, "unit": "%"}, {"measurement": "viability at 10 µg/mL", "setting": "[4]; [9]", "value": 97, "unit": "%"}, {"measurement": "viability at 50 µg/mL", "setting": "[4]; [9]", "value": 94, "unit": "%"}, {"measurement": "viability at 100 µg/mL", "setting": "[4]; [9]", "value": 85, "unit": "%"}, {"measurement": "IC50", "setting": "[4]; SK-OV-3, SKOV3, 72 h", "value": 67.7, "unit": "µg/mL"}, {"measurement": "viability at 1 µg/mL", "setting": "[5]; [10]", "value": 96, "unit": "%"}, {"measurement": "viability at 10 µg/mL", "setting": "[5]; [10]", "value": 84, "unit": "%"}, {"measurement": "viability at 50 µg/mL", "setting": "[5]; [10]", "value": 68, "unit": "%"}, {"measurement": "viability at 100 µg/mL", "setting": "[5]; [10]", "value": 44, "unit": "%"}, {"measurement": "IC50", "setting": "[5]; THP-1, 72 h", "value": 25.9, "unit": "µg/mL"}, {"measurement": "viability at 1 µg/mL", "setting": "[6]; [8]", "value": 90, "unit": "%"}, {"measurement": "viability at 10 µg/mL", "setting": "[6]; [8]", "value": 85, "unit": "%"}, {"measurement": "viability at 50 µg/mL", "setting": "[6]; [8]", "value": 68, "unit": "%"}, {"measurement": "viability at 100 µg/mL", "setting": "[6]; [8]", "value": 3, "unit": "%"}, {"measurement": "IC50", "setting": "[6]; U373, 72 h", "value": 39.1, "unit": "µg/mL"}, {"measurement": "antiproliferative activity in tumour cell lines", "setting": "tumour cell lines", "value": "significantly reduced tumour cell viability and growth in vitro"}]}
